From EPA's ToxRefDB 2 come the findings set out here.

SMILES strings stand for the structures.

The subject of series [1] is rat. As to conditions: Prenatal developmental toxicity study, sprague dawley, Oral, Gavage/Intubation, dose end: 15 GD.
The subject of series [2] is dog. As to conditions: Chronic toxicity; beagle; Oral; Feed; dose end: 52 week; group: systemic; systemic / pathology microscopic / liver / degeneration + systemic / pathology microscopic / liver / hyperplasia + systemic / pathology ….
Series [3] deals with rat. As to conditions: Multigenerational reproductive toxicity study, sprague dawley, Oral, Feed, dose end: 2 generation.
The subject of series [4] is rat. As to conditions: Combined chronic toxicity/carcinogenicity, sprague dawley, Oral, Feed, dose end: 104 week, group: systemic.
Series [5] deals with rat. As to conditions: Subchronic oral toxicity in rodents, sprague dawley, Feed, dose end: 90 day, group: systemic, systemic / in life observation / body weight / body weight + systemic / in life observation / body weight / body weight gain + systemic / in….
In series [6] the test system is mouse. As to conditions: Carcinogenicity, cd1, Oral, Feed, dose end: 78 week, group: systemic.
The test system of series [7] is rat. As to conditions: Subchronic oral toxicity in rodents, fischer, Feed, dose end: 90 day.
Series [8] relates to rat. As to conditions: Sub-acute repeat dose toxicity, sprague dawley, Injection, Intraperitoneal, dose end: 30 day, group: systemic.
Series [9] relates to rat. As to conditions: Fertility (Segment I), sprague dawley, Injection, Intraperitoneal, dose end: 7 GD.
For series [10], the system named is rat. As to conditions: Subchronic oral toxicity in rodents, fischer, Feed, dose end: 13 week, group: systemic.
Series [11] concerns mouse. As to conditions: Subchronic oral toxicity in rodents, b6c3f1, Feed, dose end: 13 week, group: systemic.
Series [12] deals with mouse. As to conditions: Carcinogenicity; b6c3f1; Oral; Feed; dose end: 2 year; group: systemic; systemic / in life observation / body weight / body weight.
Series [13] has as its system rat. As to conditions: Carcinogenicity; fischer; Oral; Feed; dose end: 2 year; group: systemic; systemic / pathology microscopic / skin / keratoacanthoma.
The test system of series [14] is rat. As to conditions: Combined chronic toxicity/carcinogenicity; fischer; Oral; Feed; dose end: 2 year; group: systemic; systemic / pathology microscopic / liver / hypertrophy + systemic / in life observation / clinical signs / hematuria + systemic / pathology ….
The subject of series [15] is rat. As to conditions: Subchronic oral toxicity in rodents, fischer, Feed, dose end: 13 week, group: systemic, systemic / organ weight / liver / nos + systemic / pathology microscopic / liver / [other] + systemic / organ weight / liver / relative to ….
Series [16] relates to dog. As to conditions: Chronic toxicity, beagle, Oral, Feed, dose end: 12 month, group: systemic.
The subject of series [17] is rat. As to conditions: Combined chronic toxicity/carcinogenicity, fischer, Oral, Feed, dose end: 2 year, group: systemic.
Series [18] deals with dog. As to conditions: Subchronic oral toxicity in nonrodent, beagle, Feed, dose end: 6 month, group: systemic.
The subject of series [19] is mouse. As to conditions: Subchronic oral toxicity in rodents, b6c3f1, Feed, dose end: 13 week, group: systemic, systemic / organ weight / liver / nos + systemic / pathology microscopic / liver / cellular alteration.
The test system of series [20] is mouse. As to conditions: Carcinogenicity, b6c3f1, Oral, Feed, dose end: 2 year, group: systemic.
The subject of series [21] is rat. As to conditions: Subchronic oral toxicity in rodents, Feed, dose end: 90 day, group: systemic.
[22] abbreviates: group: developmental, developmental / developmental malformation / bone / unossified.
Setting [23] is: group: maternal, systemic / in life observation / clinical signs / drooping eyelids (ptosis) + systemic / in life observation / clinical signs / salivation….
[24] abbreviates: group: offspring, systemic / in life observation / body weight / offspring (pup) weight + systemic / in life observation / body weight / offspring (pup) ….
Where [25] appears, read: group: parental, systemic / in life observation / body weight / body weight + systemic / in life observation / body weight / body weight gain.
The mark [26] stands for this setting: systemic / in life observation / body weight / body weight + systemic / in life observation / body weight / body weight gain.
The mark [27] stands for this setting: systemic / in life observation / body weight / body weight + systemic / in life observation / body weight / body weight gain + systemic / ….
Setting [28] is: systemic / in life observation / body weight / body weight gain + systemic / in life observation / food consumption / food efficiency + ….
Setting [29] is: group: cholinesterase, cholinesterase / cholinesterase / cholinesterase / brain cholinesterase (che).
Setting [30] is: group: cholinesterase, cholinesterase / cholinesterase / cholinesterase / brain cholinesterase (che) + cholinesterase / cholinesterase / cholinesterase / ….
The mark [31] stands for this setting: group: systemic, systemic / hematology / erythrocyte (rbc) count differential / erythrocyte (rbc) + systemic / hematology / hematocrit (hct) / hematocrit (….
Setting [32] is: group: systemic, systemic / hematology / mean corpuscular hemoglobin concentration (mchc) / mean corpuscular hemoglobin concentration (mchc).
Setting [33] is: systemic / clinical chemistry / creatinine / creatinine + systemic / in life observation / food consumption / food consumption + systemic / ….
[34] abbreviates: systemic / pathology microscopic / ovary / follicle count + systemic / in life observation / body weight / body weight.
The mark [35] stands for this setting: group: maternal, reproductive / reproductive performance / implantations / implantations + reproductive / reproductive performance / preimplantation loss / ….
The mark [36] stands for this setting: group: parental, systemic / in life observation / body weight / body weight gain + systemic / organ weight / ovary / absolute + systemic / organ weight / ….
[37] abbreviates: systemic / in life observation / body weight / body weight + systemic / in life observation / food consumption / food consumption + systemic….
Where [38] appears, read: systemic / in life observation / body weight / body weight.
The mark [39] stands for this setting: systemic / in life observation / body weight / body weight + systemic / in life observation / mortality / mortality + systemic / pathology ….
The mark [40] stands for this setting: systemic / organ weight / liver / relative to body weight + systemic / in life observation / body weight / body weight gain + systemic / ….
Setting [41] is: systemic / in life observation / body weight / body weight + systemic / in life observation / mortality / mortality.
Where [42] appears, read: systemic / organ weight / liver / absolute + systemic / organ weight / liver / relative to body weight.
The mark [43] stands for this setting: systemic / organ weight / liver / absolute + systemic / organ weight / liver / relative to body weight + systemic / clinical chemistry / ….
The mark [44] stands for this setting: systemic / organ weight / kidney / nos + systemic / organ weight / kidney / relative to body weight.
Setting [45] is: systemic / organ weight / liver / nos + systemic / pathology microscopic / liver / [other].
Where [46] appears, read: systemic / organ weight / liver / nos + systemic / pathology microscopic / liver / [other] + systemic / organ weight / kidney / nos.

Turning to `CCNc1nc(NC(C)C)nc(SC)n1` [Ametryn], the LEL in the series with rat [1] (setting [22]) amounted to 50 mg/kg/day; in the series with rat [1] (setting [23]), 50 mg/kg/day; in the series on dog [2] it was 70 mg/kg/day; in the series on rat [3] (setting [24]) it was 131 mg/kg/day; with rat [3] (setting [25]), 131 mg/kg/day; in the series with rat [4] (setting [26]), 20.9 mg/kg/day. Also, the LEL with rat [5] turned out to be 36.1 mg/kg/day. In addition, the LOAEL in the series on rat [1] (setting [22]) is greater than 250 mg/kg/day; in the series on rat [1] (group: maternal, systemic / in life observation / clinical signs / drooping eyelids (ptosis) + systemic / in life observation / clinical signs / salivation), 50 mg/kg/day; in the series on dog [2] it was 70 mg/kg/day; with rat [3] (setting [24]), 131 mg/kg/day; with rat [3] (setting [25]) it was 131 mg/kg/day; in the series on rat [4] (setting [26]), 20.9 mg/kg/day. Besides, the LOAEL in the series with rat [5] was determined as 36.1 mg/kg/day. For the same molecule, the NEL with rat [1] (setting [22]) is 5 mg/kg/day; in the series on rat [1] (setting [23]), 5 mg/kg/day; in the series on dog [2] it was 7.2 mg/kg/day; in the series with rat [3] (setting [24]), 13 mg/kg/day; in the series on rat [3] (setting [25]) it was 13 mg/kg/day; with rat [4] (setting [27]) it was 2 mg/kg/day. In addition, in the series on rat [5], the NEL is 7.4 mg/kg/day. Also, the NOAEL is no less than 250 mg/kg/day with rat [1] (setting [22]); 5 mg/kg/day with rat [1] (setting [23]); 7.2 mg/kg/day with dog [2]; 13 mg/kg/day in the series on rat [3] (setting [24]); 13 mg/kg/day in the series with rat [3] (setting [25]); 2 mg/kg/day with rat [4] (setting [27]). Besides, the NOAEL in the series on rat [5] was determined as 7.4 mg/kg/day.
Turning to `COC(=O)Nc1cccc(OC(=O)Nc2cccc(C)c2)c1` [Phenmedipham], the LOAEL in the series on mouse [6] (systemic / in life observation / body weight / body weight gain + systemic / in life observation / food consumption / food efficiency) was 1070 mg/kg/day; with rat [7] (setting [30]), greater than 366 mg/kg/day; with rat [7] (setting [31]), 35.4 mg/kg/day. Also, the values for the NEL in the series on mouse [6] (setting [28]), in the series with rat [7] (setting [29]) and in the series with rat [7] (setting [32]) were 75 mg/kg/day, less than 3.5 mg/kg/day and less than 3.5 mg/kg/day, respectively. In addition, the values for the NOAEL in the series with mouse [6] (setting [28]), in the series on rat [7] (setting [30]) and in the series on rat [7] (setting [31]) were 302 mg/kg/day, no less than 366 mg/kg/day and 3.5 mg/kg/day, respectively. In addition, the values for the LEL in the series on mouse [6] (systemic / pathology gross / spleen / enlarged + systemic / pathology microscopic / adrenal gland / amyloid deposition + systemic / …), with rat [7] (setting [29]) and in the series on rat [7] (setting [32]) were 302 mg/kg/day, 3.5 mg/kg/day and 3.5 mg/kg/day, respectively.
`C1CC2OC2CC1C1CO1` (stereo not given) [4-Vinyl-1-cyclohexene dioxide]: the LOAEL in the series on rat [8] (setting [33]), in the series on rat [9] (setting [35]) and in the series on rat [9] (setting [36]) was greater than 80 mg/kg/day in each case. For the same molecule, the NOAEL with rat [8] (setting [33]), with rat [9] (setting [35]) and in the series on rat [9] (setting [36]) was no less than 80 mg/kg/day each time. The LEL came to 40 mg/kg/day in the series with rat [8] (setting [34]), 80 mg/kg/day with rat [9] (setting [35]) and 80 mg/kg/day with rat [9] (setting [36]). Further, the NEL in the series on rat [8] (setting [34]) is less than 40 mg/kg/day; with rat [9] (setting [35]) it was 20 mg/kg/day; in the series on rat [9] (setting [36]), 20 mg/kg/day.
Consider `CCNc1cc2oc3cc(=[NH+]CC)c(C)cc-3c(-c3ccccc3C(=O)OCC)c2cc1C.[Cl-]` [Rhodamine 6G], for which the LOAEL was greater than 100 mg/kg/day in the series on rat [10] (setting [37]), greater than 1200 mg/kg/day in the series with mouse [11] (setting [39]), 125 mg/kg/day with mouse [12] and greater than 10 mg/kg/day with rat [13]. For the same molecule, the NEL with rat [10] (setting [37]) was 12.5 mg/kg/day; with mouse [11] (setting [38]), 150 mg/kg/day; in the series on mouse [12] it was less than 125 mg/kg/day; in the series on rat [13], 5 mg/kg/day. Also, the NOAEL in the series with rat [10] (setting [37]) is no less than 100 mg/kg/day; in the series with mouse [11] (setting [39]), no less than 1200 mg/kg/day; with mouse [12], less than 125 mg/kg/day; with rat [13], no less than 10 mg/kg/day. Also, the LEL with rat [10] (systemic / in life observation / body weight / body weight + systemic / pathology microscopic / bone marrow / atrophy) turned out to be 25 mg/kg/day; in the series on mouse [11] (setting [38]), 300 mg/kg/day; in the series on mouse [12], 125 mg/kg/day; in the series with rat [13] it was 10 mg/kg/day.
On to `Nc1c(Cl)c(Cl)nc(C(=O)O)c1Cl` [Picloram], for which the LEL is 250 mg/kg/day in the series on rat [14]; 150 mg/kg/day with rat [15]; 175 mg/kg/day with dog [16] (systemic / organ weight / liver / relative to body weight + systemic / organ weight / liver / absolute); 20 mg/kg/day in the series with rat [17] (setting [41]); 35 mg/kg/day in the series on dog [18] (setting [42]); 1000 mg/kg/day with mouse [19]. The LEL amounted to 1000 mg/kg/day in the series on mouse [20] (systemic / organ weight / kidney / nos) and 150 mg/kg/day with rat [21] (setting [45]). Also, the LOAEL was 250 mg/kg/day in the series with rat [14]; 150 mg/kg/day with rat [15]; greater than 175 mg/kg/day with dog [16] (setting [40]); 60 mg/kg/day in the series on rat [17] (systemic / pathology microscopic / liver / hypertrophy); 35 mg/kg/day in the series on dog [18] (setting [42]); 1000 mg/kg/day with mouse [19]. In addition, the results for the LOAEL in the series on mouse [20] (setting [44]) and with rat [21] (setting [45]) were greater than 1000 mg/kg/day and 150 mg/kg/day, respectively. Moreover, the NEL was less than 250 mg/kg/day in the series on rat [14]; 50 mg/kg/day with rat [15]; 35 mg/kg/day in the series on dog [16] (systemic / organ weight / liver / relative to body weight + systemic / in life observation / body weight / body weight gain); less than 20 mg/kg/day in the series with rat [17] (setting [41]); 7 mg/kg/day in the series with dog [18] (setting [43]); less than 1000 mg/kg/day in the series on mouse [19]. Besides, the NEL came to 500 mg/kg/day with mouse [20] (setting [44]) and 50 mg/kg/day in the series on rat [21] (setting [46]). The NOAEL in the series with rat [14] is less than 250 mg/kg/day; in the series with rat [15], 50 mg/kg/day; in the series on dog [16] (setting [40]) it was no less than 175 mg/kg/day; in the series on rat [17] (systemic / in life observation / body weight / body weight + systemic / pathology microscopic / liver / hypertrophy + systemic / clinical …), 20 mg/kg/day; in the series with dog [18] (setting [43]), 7 mg/kg/day; in the series on mouse [19], less than 1000 mg/kg/day. In addition, the NOAEL in the series with mouse [20] (setting [44]) was no less than 1000 mg/kg/day; with rat [21] (setting [46]), 50 mg/kg/day.
